Test results: patent US20240368174A1, “Antiviral Heterocyclic Compounds” (Enanta Pharmaceuticals, Inc., priority 2023, published 2024)
pEC50: −log10 of the molar value.

Test system: HMPV clinical isolate A2 strain TN 94-49
Assay: HMPV antiviral assay, Method 2 (LLC-MK2 cells with CP-100-356, ATP-Lite)
Format: cell-based
Conditions: human metapneumovirus; hMPV A2 TN/94-49, LLC-MK2 cells with CP-100-356, Method 2
Procedure: In vitro HMPV antiviral activity was evaluated using the clinical isolate A2 strain TN 94-49 (obtained from Dr. John Williams, Vanderbilt University, Tennessee) and LLC-MK2 cells (Millipore Sigma CB_85062804), an immortalized kidney epithelial cell line from Macaca mulatta. Compounds were resuspended in dimethyl sulfoxide (DMSO) at 10 mM, serially diluted and added to a 384-well source plate. Subsequently, the compounds were diluted and transferred onto 384-well assay plates using the Echo-650 automated liquid handling system (Beckman Coulter, Indiana). The test compounds were assessed in duplicate at a top concentration of 200 nM followed by 2.5-fold serial dilutions to give a total of 10 concentration points. DMSO control wells were also included on the assay plates and were either infected or not, acting as positive and negative controls. A2 TN 94-49 virus infections were performed in-suspension with LLC-MK2 cells. The cells were washed twice with PBS and removed from the cell-culture flask with 0.25% trypsin-EDTA (Thermo Fisher Scientific, MA). The trypsin-EDTA was inactivated by resuspending in 2% fetal bovine serum (FBS) and OptiMEM (ThermoFisher Scientific, MA) containing 1% antibiotic-antimycotic. Cells were pelleted by centrifuging for 5 minutes at 800 rpm, the supernatant was removed, and cells were re-suspended and washed in PBS plus 100 μg/mL CaCl2). This step was performed twice. Cells were then re-suspended in serum-free (SF)-OptiMEM containing 4 μg/mL TPCK-Trypsin (Sigma Aldrich, MO), 1% antibiotic-antimycotic (ThermoFisher Scientific, MA), 100 μg/mL CaCl2), and 4 μM of CP-100-356, a P-glycoprotein inhibitor. Cells were counted and seeded at a density of 5,000 cells/well, 12.5 μL/well. Virus infections were done at a multiplicity of infection (MOI) of 0.16 with 12.5 μL added per well. Virus infections were performed in infection media which contained SF-OptiMEM, 100 μg/mL CaCl2) and 1% antibiotic-antimycotic. HMPV viral stocks are suspended in infection media+5% glycerol, thus an equal volume of infection media+5% glycerol was added to uninfected wells to equalize the final % glycerol across all wells of the assay plate. The final concentration of TPCK-trypsin was 2 μg/mL. The final concentration of CP-100-356 was 2 μM. The assay plates were incubated at 37° C., 5% CO2 for 7 days. After 7 days incubation, 12.5 μL of ATP-Lite (PerkinElmer, MA) was added to each well and the raw luminescence values were determined using the Envision 2104 (Perkin Elmer, MA). The average of the raw luminescence values for the cells and virus only positive control wells was subtracted from all conditions tested and the percent cell health was determined by dividing these values by the average of the cells only negative control wells. EC50 values were then calculated by non-linear regression using a four-parameter curve logistic equation. The curve fit model employed was XLFit Dose Response One Site Model 200: y=(A+(B/(1+((x/C)^D)))), where A is the minimum y value, B is the maximum y value, C is the log EC50 value, and D is the slope factor.

Compound: COc1cc(C(=O)NC[C@@](O)(c2ccccc2)c2cc3c(c(-c4cc(Cl)c(F)cc4F)n2)OC[C@]3(C)C(N)=O)cc2c1OCCC2 [Example 93]
- pEC50: < 6.70

Compound: COc1cc(OC)c2cc(C(=O)NC[C@@](O)(c3ccccc3)c3cc4c(c(-c5cc(Cl)c(F)cc5F)n3)OC[C@]4(C)C(N)=O)[nH]c2c1 [Example 94]
- pEC50: < 6.70

Compound: COc1cc(C(=O)NC[C@@](O)(c2ccccc2)c2cc3c(c(-c4cccc(Cl)c4Cl)n2)OC[C@]3(C)C(N)=O)cc2oc(C)nc12 [Example 95]
- pEC50: > 6.70

Compound: COc1cc(C(=O)NC[C@@](O)(c2ccccc2)c2cc3c(c(-c4cccc(Cl)c4Cl)n2)OC[C@]3(C)C(N)=O)cc2oc(C3CC3)nc12 [Example 96]
- pEC50: > 6.70

Compound: C[C@]1(C(N)=O)COc2c1cc([C@@](O)(CNC(=O)c1ccc3nc(C4CC4)oc3c1)c1ccccc1)nc2-c1cccc(Cl)c1Cl [Example 97]
- pEC50: > 6.70

Compound: C[C@]1(C(N)=O)COc2c1cc([C@@](O)(CNC(=O)c1cc(OC3CC3)c3nn(C4CC4)cc3c1)c1ccccc1)nc2-c1cc(Cl)c(F)cc1F [Example 98]
- pEC50: > 6.70

Compound: C[C@]1(C(N)=O)COc2c1cc([C@@](O)(CNC(=O)c1cc(Cl)c3nn(C4CC4)cc3c1)c1ccccc1)nc2-c1cc(Cl)c(F)cc1F [Example 99]
- pEC50: > 6.70

Compound: C[C@]1(C(N)=O)COc2c1cc([C@@](O)(CNC(=O)c1cc(F)c3nn(C4CC4)cc3c1)c1ccccc1)nc2-c1cc(Cl)c(F)cc1F [Example 100]
- pEC50: > 6.70

Compound: C[C@]1(C(N)=O)COc2c1cc([C@@](O)(CNC(=O)c1ccc3nn(C4CC4)cc3c1)c1ccccc1)nc2-c1cc(Cl)c(F)cc1F [Example 101]
- pEC50: > 6.70

Compound: COc1cc(C(=O)NC[C@](O)(c2cc3c(c(-c4cc(F)c(F)cc4F)n2)OC[C@]3(C)C(N)=O)C2CC2)cc2cc(Cl)cnc12 [Example 103]
- pEC50: > 6.70

Compound: C[C@]1(C(N)=O)COc2c1cc([C@@](O)(CNC(=O)c1cc(OC3CC3)c3ncc(Cl)cc3c1)C1CC1)nc2-c1cc(F)c(F)cc1F [Example 104]
- pEC50: > 6.70

Compound: [2H]C([2H])([2H])NC(=O)[C@@]1(C)COc2c1cc([C@@](O)(CNC(=O)c1cc(OC)c3nn(C4(F)CC4)cc3c1)c1ccccc1)nc2-c1cc(Cl)c(F)cc1F [Example 109]
- pEC50: > 6.70

Compound: [2H]C([2H])([2H])NC(=O)[C@@]1(C)COc2c1cc([C@@](O)(CNC(=O)c1cc(OC)c3nc(C4CC4)oc3c1)c1ccccc1)nc2-c1cc(Cl)c(F)cc1F [Example 110]
- pEC50: > 6.70

Compound: C[C@]1(C(N)=O)COc2c1cc([C@@](O)(CNC(=O)c1cc(OC3CC3)c3nn(C4(F)CC4)cc3c1)C1CC1)nc2-c1ccc(F)c(Cl)c1 [Example 112]
- pEC50: > 6.70

Compound: COc1cc(C(=O)NC[C@@](O)(c2ccccc2)c2cc3c(c(-c4cc(Cl)c(F)cc4F)n2)OC[C@]3(C)C(N)=O)cc2cc(Cl)nnc12 [Example 113]
- pEC50: > 6.70

Compound: COc1cc(C(=O)NC[C@@](O)(c2ccccc2)c2cc3c(c(-c4cc(Cl)c(F)cc4F)n2)OC[C@]3(C)C(N)=O)cn2cc(C3CC3)nc12 [Example 115]
- pEC50: > 6.70

Compound: C[C@]1(C(N)=O)COc2c1cc([C@@](O)(CNC(=O)c1cc(Cl)c3[nH]ncc3c1)c1ccccc1)nc2-c1cc(Cl)c(F)cc1F [Example 117]
- pEC50: < 6.70

Compound: Cc1cc(C(=O)NC[C@@](O)(c2ccccc2)c2cc3c(c(-c4cc(Cl)c(F)cc4F)n2)OC[C@]3(C)C(N)=O)cc2cn[nH]c12 [Example 118]
- pEC50: > 6.70

Compound: Cc1cc(C(=O)NC[C@](O)(c2cc3c(c(-c4cc(F)c(F)cc4F)n2)OC[C@]3(C)C(N)=O)C2CC2)cc2cn[nH]c12 [Example 120]
- pEC50: < 6.70

Compound: COc1cc(C(=O)NC[C@](O)(c2cc3c(c(-c4ccnc(F)c4)n2)OC[C@]3(C)C(N)=O)C2CC2)cc2cn(C3CC3)nc12 [Example 121]
- pEC50: < 6.70

Compound: C[C@]1(C(N)=O)COc2c1cc([C@@](O)(CNC(=O)c1cc(OCCO)c3nn(C4CC4)cc3c1)C1CC1)nc2-c1cc(Cl)c(F)cc1F [Example 126]
- pEC50: > 6.70

Compound: Cc1nc2c(OC(F)F)cc(C(=O)NC[C@](O)(c3cc4c(c(-c5cc(Cl)c(F)cc5F)n3)OC[C@]4(C)C(N)=O)c3ccccc3F)cc2cc1Br [Example 139]
- pEC50: < 6.70

Compound: COc1cc(C(=O)NC[C@@](O)(c2ccncc2)c2cc3c(c(-c4cc(Cl)c(F)cc4F)n2)OC[C@]3(C)C(N)=O)cc2cn(C3CC3)nc12 [Example 152]
- pEC50: > 6.70

Compound: COc1cc(C(=O)NC[C@@](O)(c2cnn(C)c2)c2cc3c(c(-c4cc(Cl)c(F)cc4F)n2)OC[C@]3(C)C(N)=O)cc2cn(C3CC3)nc12 [Example 153]
- pEC50: < 6.70

Compound: COc1cc(C(=O)NC[C@@](O)(c2cccc(F)n2)c2cc3c(c(-c4cc(Cl)c(F)cc4F)n2)OC[C@]3(C)C(N)=O)cn2cc(C3CC3)nc12 [Example 154]
- pEC50: > 6.70

Compound: Cc1nc2c(OC(F)(F)F)cc(C(=O)NC[C@@](O)(c3ccccc3)c3cc4c(c(-c5cc(Cl)c(F)cc5F)n3)OC[C@]4(C)C(N)=O)cc2s1 [Example 188]
- pEC50: < 6.70

Compound: Cc1nc2c(OC3CC3)cc(C(=O)NC[C@@](O)(c3ccccc3)c3cc4c(c(-c5cc(Cl)c(F)cc5F)n3)OC[C@]4(C)C(N)=O)cc2s1 [Example 189]
- pEC50: > 6.70

Compound: C[C@]1(C(N)=O)COc2c1cc([C@@](O)(CNC(=O)c1cc(OC3CC3)c3nc(C4CC4)sc3c1)c1ccccc1)nc2-c1cc(Cl)c(F)cc1F [Example 190]
- pEC50: < 6.70

Compound: C[C@]1(C(N)=O)COc2c1cc([C@@](O)(CNC(=O)c1cc(OC3CC3)n3nc(C4CC4)cc3c1)c1ccccc1)nc2-c1cc(Cl)c(F)cc1F [Example 191]
- pEC50: > 6.70

Compound: Cc1nc2ccc(C(=O)NC[C@@](O)(c3ccccc3)c3cc4c(c(-c5cc(F)c(F)cc5F)n3)OC[C@]4(C)C(N)=O)cc2o1 [Example 192]
- pEC50: > 6.70

Compound: COc1cc(C(=O)NC[C@@](O)(c2ccccc2)c2cc3c(c(-c4cc(F)c(F)cc4F)n2)OC[C@]3(C)C(N)=O)cc2oc(C)nc12 [Example 193]
- pEC50: > 6.70

Compound: C[C@]1(C(N)=O)COc2c1cc([C@@](O)(CNC(=O)c1ccc3nc(C4CC4)oc3c1)c1ccccc1)nc2-c1cc(F)c(F)cc1F [Example 194]
- pEC50: > 6.70

Compound: COc1cc(C(=O)NC[C@@](O)(c2ccccc2)c2cc3c(c(-c4cc(F)c(F)cc4F)n2)OC[C@]3(C)C(N)=O)cc2oc(C3CC3)nc12 [Example 195]
- pEC50: > 6.70

Compound: C[C@]1(C(N)=O)COc2c1cc([C@@](O)(CNC(=O)c1cc(OC3CC3)c3ncc(Cl)cc3c1)c1ccccc1)nc2-c1cc(Cl)c(F)cc1F [Example 196]
- pEC50: > 6.70

Compound: C[C@]1(C(N)=O)COc2c1cc([C@@](O)(CNC(=O)c1cc(OC3CC3)c3ncc(Cl)cc3c1)c1ccccc1)nc2-c1cc(F)c(F)cc1F [Example 197]
- pEC50: > 6.70

Compound: COc1cc(C(=O)NC[C@@](O)(c2ccccc2)c2cc3c(c(-c4cc(F)c(F)cc4F)n2)OC[C@]3(C)C(N)=O)cc2cc(Cl)cnc12 [Example 198]
- pEC50: > 6.70

Compound: C[C@]1(C(N)=O)COc2c1cc([C@@](O)(CNC(=O)c1ccc3nc(C4CC4)oc3c1)c1ccccc1)nc2-c1ccc2c(c1)OC(F)(F)O2 [Example 199]
- pEC50: < 6.70

Compound: COc1cc(C(=O)NC[C@@](O)(c2ccccc2)c2cc3c(c(-c4ccc5c(c4)OC(F)(F)O5)n2)OC[C@]3(C)C(N)=O)cc2oc(C3CC3)nc12 [Example 200]
- pEC50: > 6.70

Compound: COc1cc(C(=O)NC[C@@](O)(c2ccccc2)c2cc3c(c(-c4ccc5c(c4)OC(F)(F)O5)n2)OC[C@]3(C)C(N)=O)cc2oc(C)nc12 [Example 201]
- pEC50: > 6.70

Compound: COc1cc(C(=O)NC[C@@](O)(c2ccccc2)c2cc3c(c(-c4ccc5c(c4)OC(F)(F)O5)n2)OC[C@]3(C)C(N)=O)cc2cc(Cl)cnc12 [Example 202]
- pEC50: > 6.70

Compound: COc1cc(C(=O)NC[C@@](O)(c2cccc(F)n2)c2cc3c(c(-c4cc(Cl)c(F)cc4F)n2)OC[C@]3(C)C(N)=O)cc2cn(C3CC3)nc12 [Example 203]
- pEC50: > 6.70

Compound: COc1cc(C(=O)NC[C@@](O)(c2cccc(F)n2)c2cc3c(c(-c4cc(Cl)c(F)cc4F)n2)OC[C@]3(C)C(N)=O)cc2cn(C3(F)CC3)nc12 [Example 204]
- pEC50: > 6.70

Compound: COc1cc(C(=O)NC[C@@](O)(c2cccc(F)n2)c2cc3c(c(-c4cc(Cl)c(F)cc4F)n2)OC[C@]3(C)C(N)=O)cc2cn(C(F)F)nc12 [Example 205]
- pEC50: > 6.70
